The test concerns P388 leukemia ip, CD2F1 mice, survival T/C. Description: NCI In Vivo Anticancer Drug Screen. Data for tumor model P388 Leukemia (intraperitoneal) in CD2F1 (CDF1) mice. The settings on record: endpoint: median survival time, higher = longer survival. In short, it runs like this: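 Mice carrying the transplanted tumor received test compound or vehicle. Survival was recorded in each group, and the value is the treated-group measurement divided by that of the vehicle-treated control group.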

Where [1] appears, read: dose: 50.0 mg/kg/injection, schedule: Q01DX005 (ip), vehicle: Klucel (hydroxypropylcellulose) (HPC).
Setting [2] is: dose: 100.0 mg/kg/injection, schedule: Q01DX005 (ip), vehicle: Klucel (hydroxypropylcellulose) (HPC).
The mark [3] stands for this setting: dose: 200.0 mg/kg/injection, schedule: Q01DX005 (ip), vehicle: Klucel (hydroxypropylcellulose) (HPC).
The mark [4] stands for this setting: dose: 50.0 mg/kg/injection, schedule: Q01DX009 (ip), vehicle: saline with Tween-80.
[5] abbreviates: dose: 50.0 mg/kg/injection, schedule: Q01DX009 (ip), vehicle: saline.
Where [6] appears, read: dose: 100.0 mg/kg/injection, schedule: Q01DX009 (ip), vehicle: saline.

SMILES strings stand for the structures. Toxic doses and inconclusive results are not listed.

Consider `N#CCCN(CCC#N)P(=O)(N(CCC#N)CCC#N)N(CCC#N)CCC#N`, for which the T/C runs as follows: under setting [1], 100 % of control; under setting [2], 96 % of control; under setting [3], 100 % of control.
For the compound `Oc1ccccc1/C=N/Nc1nnnn1-c1ccccc1`, the T/C by setting is: (dose: 100.0 mg/kg/injection, schedule: Q01DX001 (ip), vehicle: Klucel (hydroxypropylcellulose) (HPC)) 102 % of control; (dose: 200.0 mg/kg/injection, schedule: Q01DX001 (ip), vehicle: Klucel (hydroxypropylcellulose) (HPC)) 102 % of control; (dose: 400.0 mg/kg/injection, schedule: Q01DX001 (ip), vehicle: Klucel (hydroxypropylcellulose) (HPC)) 98 % of control.
With `CCCCN=C(N=C(NC(=O)c1ccccc1)c1ccccc1)c1ccccc1`, the T/C under setting [4] is 90 % of control; the T/C (dose: 100.0 mg/kg/injection, schedule: Q01DX009 (ip), vehicle: saline with Tween-80) is 89 % of control; the T/C (dose: 200.0 mg/kg/injection, schedule: Q01DX009 (ip), vehicle: saline with Tween-80) is 93 % of control.
`CCC1CN1P(=O)(N(CC)CC)N1CC1CC` (configuration not stated): the T/C is 109 % of control under setting [5] and 170 % of control under setting [6].
Regarding `C[N+]12CCO[B-]1(c1ccccc1)OCC2` (configuration not stated), the T/C is 108 % of control (dose: 60.0 mg/kg/injection, schedule: Q01DX005 (ip), vehicle: saline); 100 % of control (dose: 120.0 mg/kg/injection, schedule: Q01DX005 (ip), vehicle: saline); 100 % of control (dose: 240.0 mg/kg/injection, schedule: Q01DX005 (ip), vehicle: saline).
With `Cc1ccc2c(c1)C(=O)n1cccc1C(O)N2` (configuration not stated), the T/C by setting is: (dose: 0.1 mg/kg/injection, schedule: Q01DX005 (ip), vehicle: water) 100 % of control; (dose: 0.2 mg/kg/injection, schedule: Q01DX005 (ip), vehicle: water) 99 % of control; (dose: 0.4 mg/kg/injection, schedule: Q01DX005 (ip), vehicle: water) 99 % of control; (dose: 0.8 mg/kg/injection, schedule: Q01DX005 (ip), vehicle: water) 98 % of control; (dose: 1.6 mg/kg/injection, schedule: Q01DX005 (ip), vehicle: water) 89 % of control; (dose: 5.0 mg/kg/injection, schedule: Q01DX005 (ip), vehicle: distilled water + Tween-80) 98 % of control. In addition, the T/C is, setting by setting: (dose: 10.0 mg/kg/injection, schedule: Q01DX005 (ip), vehicle: distilled water + Tween-80) 95 % of control; (dose: 20.0 mg/kg/injection, schedule: Q01DX005 (ip), vehicle: distilled water + Tween-80) 92 % of control; (dose: 40.0 mg/kg/injection, schedule: Q01DX005 (ip), vehicle: distilled water + Tween-80) 98 % of control; (dose: 80.0 mg/kg/injection, schedule: Q01DX005 (ip), vehicle: distilled water + Tween-80) 92 % of control.
Turning to `O=C(CCn1c(CN2CCN(C/C=C/c3ccccc3)CC2)nc2ccccc21)c1ccccc1`, the T/C (dose: 50.0 mg/kg/injection, schedule: Q01DX009 (ip), vehicle: Klucel (hydroxypropylcellulose) (HPC)) is 104 % of control; the T/C (dose: 100.0 mg/kg/injection, schedule: Q01DX009 (ip), vehicle: Klucel (hydroxypropylcellulose) (HPC)) was 100 % of control; the T/C (dose: 200.0 mg/kg/injection, schedule: Q01DX009 (ip), vehicle: Klucel (hydroxypropylcellulose) (HPC)) was 111 % of control.
As to `O=C(O)c1c[nH]c2cc(OCc3ccccc3)ccc2c1=O`, the T/C runs as follows: under setting [5], 99 % of control; under setting [6], 98 % of control; (dose: 200.0 mg/kg/injection, schedule: Q01DX009 (ip), vehicle: saline) 103 % of control.
As for `O=c1[nH]cnc2[nH]ccc12`, under setting [4], the T/C was 106 % of control.
Regarding `COc1cccc(C2c3cc4c(cc3OC(C)(O)C2C)OCO4)c1O` (configuration not stated), the T/C runs as follows: (dose: 60.0 mg/kg/injection, schedule: Q01DX005 (ip), vehicle: Klucel (hydroxypropylcellulose) (HPC)) 96 % of control; (dose: 120.0 mg/kg/injection, schedule: Q01DX005 (ip), vehicle: Klucel (hydroxypropylcellulose) (HPC)) 98 % of control; (dose: 240.0 mg/kg/injection, schedule: Q01DX005 (ip), vehicle: Klucel (hydroxypropylcellulose) (HPC)) 93 % of control.
Turning to `C=C(C)COC(=O)C1C2CC(C3OC23)C1C(=O)OCC(=C)C` (configuration not stated), the T/C under setting [1] was 102 % of control, the T/C under setting [2] is 104 % of control and the T/C under setting [3] was 100 % of control.
Consider `COc1ccc(C(c2cc(C(C)(C)C)cc(C(C)(C)C)c2O)N2CCCCC2)cc1` (configuration not stated), for which the T/C is, setting by setting: (dose: 50.0 mg/kg/injection, schedule: Q01DX005 (ip), vehicle: distilled water + alcohol) 97 % of control; (dose: 100.0 mg/kg/injection, schedule: Q01DX005 (ip), vehicle: distilled water + alcohol) 100 % of control; (dose: 200.0 mg/kg/injection, schedule: Q01DX005 (ip), vehicle: distilled water + alcohol) 99 % of control.
As to `CC(CC(O)C(=O)O)CC(C)(C)C` (configuration not stated), the T/C (dose: 50.0 mg/kg/injection, schedule: Q01DX005 (ip), vehicle: saline with Tween-80) was 95 % of control; the T/C (dose: 100.0 mg/kg/injection, schedule: Q01DX005 (ip), vehicle: saline with Tween-80) was 96 % of control; the T/C (dose: 200.0 mg/kg/injection, schedule: Q01DX005 (ip), vehicle: saline with Tween-80) was 101 % of control.
Take `CP(=O)(NN)c1ccccc1` (configuration not stated): the T/C was 89 % of control (dose: 12.5 mg/kg/injection, schedule: Q01DX009 (ip), vehicle: water); 96 % of control (dose: 25.0 mg/kg/injection, schedule: Q01DX009 (ip), vehicle: water); 101 % of control (dose: 50.0 mg/kg/injection, schedule: Q01DX009 (ip), vehicle: water).
On to `C=CCN1C(SC)=NC(=O)C1(c1ccccc1)c1ccccc1`, for which the T/C reads like this: under setting [1], 100 % of control; under setting [2], 104 % of control; under setting [3], 102 % of control.
Turning to `CCCCCCCCCOCC(COP(=O)([O-])OCC[N+](C)(C)C)OC` (configuration not stated), the T/C (dose: 50.0 mg/kg/injection, schedule: Q01DX005 (ip), vehicle: saline) is 99 % of control and the T/C (dose: 100.0 mg/kg/injection, schedule: Q01DX005 (ip), vehicle: saline) was 103 % of control.
On to `COc1ccc2c(O)c(S(=O)(=O)c3ccc(C)cc3)c(=O)oc2c1`, for which the T/C by setting is: (dose: 60.0 mg/kg/injection, schedule: Q01DX005 (ip), vehicle: saline with Tween-80) 92 % of control; (dose: 120.0 mg/kg/injection, schedule: Q01DX005 (ip), vehicle: saline with Tween-80) 104 % of control; (dose: 240.0 mg/kg/injection, schedule: Q01DX005 (ip), vehicle: saline with Tween-80) 115 % of control.
`C/C(=N\N1CN(C(C)C(=O)O)P(N(CCO)CCO)N=C1N)c1cccs1` (configuration not stated): the T/C is 98 % of control (dose: 7.5 mg/kg/injection, schedule: Q01DX005 (ip), vehicle: saline); 101 % of control (dose: 15.0 mg/kg/injection, schedule: Q01DX005 (ip), vehicle: saline); 98 % of control (dose: 30.0 mg/kg/injection, schedule: Q01DX005 (ip), vehicle: saline).
